The text below walks through data of patent US20070299079A1, “4-AMINO-PYRIDO[3,2-e]PYRAZINES, THEIR USE AS INHIBITORS OF PHOSPHODIESTERASE 10, AND PROCESSES FOR PREPARING THEM” (priority 2006, published 2007).

Where two headings read alike, the source gives them in different places. Bounds are passed on as bounds.

One may read the melting point as the temperature, or range, at which the solid turns liquid. One may read the IC50 as the midpoint of a concentration-inhibition curve. For orientation: Km means the substrate concentration at which the rate is half of its maximum.

The test system of data set [1] is MK-801-induced hyperactivity and stereotyped sniffing. Kind of data set: MK-801-induced hyperactivity and stereotyped sniffing, animal model of psychosis. The note with it: female Wistar rats, p.o. 30 min prior to test, MK-801 0.1 mg/kg i.p.; for Dose from which MK-801-induced hyperactivity is significantly reversed: activity recorded 1 h; for Dose from which MK-801-induced stereotyped sniffing is significantly reversed: sniffing scored 1 h. The format is in vivo, rat. As to the method:
Female Wistar rats (Crl: (WI) BR, Charles River, Sulzfeld, Germany) weighing 150 to 180 g were used for the MK-801-induced psychosis. Animals were housed under standard conditions in groups of five on a 12 h light/dark cycle (light on at 0600 h) with ad libitum access to food (Pellets, ssniff M/R 15, Spezialdiät GmbH, Soest/Westfalen) and water.
MK-801 (dizocilpine, MW 337.37) was obtained by Tocris, distributed by Biotrend Chemikalien GmbH, Köln, Germany.
Hydroxyethylcellulose was solved in distilled water.
MK-801 was dissolved in saline so that an administration volume of 0.5 ml/100 g was reached. The suspensions and solution were placed on a magnetic stirrer before and during dosing procedures.
The behaviour induced by the NMDA antagonist MK-801 is generally accepted as a rat model of psychosis. MK-801 induces stereotyped sniffing and hyperactivity in rats after intraperitoneal administration.
Locomotor activity of the rats was recorded by the MotiTest Apparatus (TSE, Bad Homburg, Germany). The test area consisted of a squared arena (45×45 cm) with protective plexiglass walls (20 cm of height) where rats could freely move. Horizontal movements were recorded by 32 infrared photocells arranged along the bottom of each wall of the arena. Activity [sec] was measured by the computer program “ActiMot” (TSE, Bad Homburg, Germany).
Stereotyped sniffing was scored by the experimenter every five minutes for one hour (12 intervals) according to the method described by Andiné et al. (1999). The scores of the 12 intervals were summed up at the end of the experiment.
The day of experiment the female rats were placed in the laboratory and received the test compound or vehicle at the appropriate time prior to test. MK-801 0.1 mg/kg was intraperitoneally administered 10 minutes prior to test.
At the beginning of the test the rats were placed in the centre of the squared arena of the MotiTest apparatus. Behaviour of the rats was recorded for one hour. After each run animals were removed and the boxes thoroughly cleaned and dried.
Results were analysed by one way analysis of variance (ANOVA). Tukey test was used for individual comparison. P<0.05 was regarded as significant.
MK-801 at 0.1 mg/kg i.p. was administered 10 min before testing. […] Activity and stereotyped sniffing was recorded for 1 h. Co=control without MK-801 stimulation, Cs=control with MK-801 stimulation. Significant to MK-801 stimulated control (=Cs): * p<0.05, *** p<0.001.

Data set [2] concerns the target T1, PDE10 from pig striatum (Sus scrofa, UniProt A0A287B941).
Experimental: (§1) For the enzymatic testing of PDE10 activity 0.5 g of the isolated and frozen striatum was homogenised in 10 ml 50 mM Tris/Mg-buffer at 4° C. and centrifuged for one hour at 100000 g. The supernatant is called the cytosolic fraction and was removed and stored on ice. The pellet was resuspended in the same buffer, but containing 1% Triton and incubated for 45 min at 4° C. Both fractions were independently applied onto a 5 ml Hi Trap™ QHP column at the Äkta-FPLC. After washing the columns the bound PDE protein was eluted with an increasing sodium chloride gradient (0 mM-500 mM sodium chloride) in 50 mM Tris/Mg-buffer at 4° C. for the cytosolic fraction and in the presence of 1% Triton for the membrane fraction. […] The fractions with PDE10-activity were pooled and frozen in aliquots until use at −20° C.
(§2) PDE10 activity was determined in a one step procedure in microtiterplates. […] Nonspecific activity was tested without the enzyme. The reaction was initiated by addition of the substrate solution and was carried out at 37° C. for 30 minutes. Enzymatic activity was stopped by addition of 25 μl YSi—SPA-beads (Amersham-Pharmacia). One hour later the mixture was measured in a liquid scintillation counter for microtiterplates (Microbeta Trilux). To pipette the incubation mixture a robot Biomek (Fa. Beckman) is used. […] For determination of IC50 values the Hill-plot, 2-parameter-model, was used.
A further data set addresses T2, PDE10 from rat striatum (Rattus norvegicus, UniProt Q9QYJ6).
T2 construct: 0.5 g of the isolated and frozen striatum was homogenised; from tissue; host or cells: striatum of male Wistar rats, anion-exchange FPLC fractions
T2 sequence (Q9QYJ6 1-794): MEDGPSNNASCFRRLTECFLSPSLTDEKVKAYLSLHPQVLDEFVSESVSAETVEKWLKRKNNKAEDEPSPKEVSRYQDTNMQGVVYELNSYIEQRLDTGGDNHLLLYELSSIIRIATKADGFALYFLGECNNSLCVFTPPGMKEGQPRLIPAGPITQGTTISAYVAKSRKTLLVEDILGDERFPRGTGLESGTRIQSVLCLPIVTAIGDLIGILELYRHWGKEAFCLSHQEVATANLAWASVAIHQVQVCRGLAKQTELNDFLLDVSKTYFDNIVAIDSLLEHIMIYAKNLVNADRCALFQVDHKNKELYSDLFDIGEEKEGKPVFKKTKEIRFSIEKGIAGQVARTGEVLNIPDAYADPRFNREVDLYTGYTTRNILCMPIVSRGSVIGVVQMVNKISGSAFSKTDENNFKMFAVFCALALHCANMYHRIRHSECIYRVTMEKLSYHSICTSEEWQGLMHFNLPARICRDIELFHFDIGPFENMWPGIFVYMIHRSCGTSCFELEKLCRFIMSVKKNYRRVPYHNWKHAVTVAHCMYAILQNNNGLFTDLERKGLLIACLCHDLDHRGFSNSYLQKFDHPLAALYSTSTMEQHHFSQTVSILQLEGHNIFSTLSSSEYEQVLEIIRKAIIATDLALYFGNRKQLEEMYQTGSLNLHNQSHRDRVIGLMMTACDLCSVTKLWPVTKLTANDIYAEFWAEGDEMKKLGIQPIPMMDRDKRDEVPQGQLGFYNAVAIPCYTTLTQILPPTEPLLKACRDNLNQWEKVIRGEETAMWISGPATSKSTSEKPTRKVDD
As to the kind of experiment: Inhibition of PDE10 from rat striatum. The format is biochemical. As to the method:
Phosphodiesterase isoenzyme 10 (PDE10) activity was determined in preparations of rat, pig and guinea pig striatum respectively. Striatum from male Wistar rats (180-200 g), male hybrid pigs (150 kg) and male guinea pigs (CRL (HA), 500 g) respectively were collected and frozen at −70° C.
For the enzymatic testing of PDE10 activity 0.5 g of the isolated and frozen striatum was homogenised in 10 ml 50 mM Tris/Mg-buffer at 4° C. and centrifuged for one hour at 100000 g.
Nonspecific activity was tested without the enzyme. […] For determination of IC50 values the Hill-plot, 2-parameter-model, was used.

Data set [3] deals with T1, PDE10 from pig striatum. As to the kind of experiment: Inhibition of PDE10 from pig striatum. To be noted: read-out: Km value of the substrate for PDE10 from pig striatum.
Experimental: as §1, §2

For `CCN1CC(C)=C(N2CCN(c3ccccc3)CC2)C2=C1N1CN(OC)C=C1C=N2`, the melting point was 224 to 227 °C.

As for “4-amino-1-(2-chloro-phenyl)-8-methoxy-3-methyl-imidazo[1,5-a]pyrido[3,2-e]pyrazine [Example 11]”, in data set [1], the “Dose from which MK-801-induced hyperactivity is significantly reversed” value was ≥ 0.5 mg/kg and the “Dose from which MK-801-induced stereotyped sniffing is significantly reversed” value was ≥ 0.5 mg/kg.

Consider “4-amino-8-methoxy-3-methyl-1-propyl-imidazo[1,5-a]pyrido[3,2-e]pyrazine [Example 1]”, for which, in data set [1], the “Dose from which MK-801-induced hyperactivity is significantly reversed” value is listed as ≥ 10 mg/kg and the “Dose from which MK-801-induced stereotyped sniffing is significantly reversed” value is on record as ≥ 10 mg/kg.

The compound “8-methoxy-3-methyl-1-propyl-4-(1,2,4-triazol-1-yl)-imidazo[1,5-a]pyrido[3,2-e]pyrazine [Example 33]” showed an IC50 against PDE10 from pig striatum [2] of 25 nM.

In turn, “8-methoxy-3-methyl-1-propyl-4-(pyrazol-1-yl)-imidazo[1,5-a]pyrido[3,2-e]pyrazine hydro chloride [Example 30]” had an IC50 on PDE10 from pig striatum [2] of 155 nM.

The compound “8-methoxy-3-methyl-1-propyl-4-pyrrolidino-imidazo[1,5-a]pyrido[3,2-e]pyrazine [Example 26]” yielded an IC50 on PDE10 from pig striatum [2] of 137 nM.

Regarding “8-methoxy-3-methyl-4-(2-methyl-imidazol-1-yl)-1-propyl-imidazo[1,5-a]pyrido[3,2-e]pyrazine [Example 34]”, half-maximal inhibition against PDE10 from pig striatum [2] (IC50) required 395 nM.

The compound “8-methoxy-3-methyl-4-piperidino-1-propyl-imidazo[1,5-a]pyrido[3,2-e]pyrazine [Example 27]” registered an IC50 at PDE10 from pig striatum [2] of 302 nM.

In turn, `CON1C=C2C=NC3=C(N(CCC(F)(F)F)CC(C)=C3N)N2C1` [Example 8, 4-amino-8-methoxy-3-methyl-1-(3,3,3-trifluoropropyl)-imidazo[1,5-a]pyrido[3,2-e]pyrazine] registered a melting point of 273 to 276 °C.

Compound `CON1C=C2C=Nc3c(ncc(-c4ccccc4)c3N)N2C1` [Example 15, 4-amino-8-methoxy-3-phenyl-imidazo[1,5-a]pyrido[3,2-e]pyrazine] returned a melting point of 252 to 253 °C.

`CCCN1CC(C)=C(NC)C2=C1N1CN(OC)C=C1C=N2` [Example 16, 4-(N-methyl-amino)-8-methoxy-3-methyl-1-propyl-imidazo[1,5-a]pyrido[3,2-e]pyrazine] displayed a melting point of 111 to 113 °C.

The compound `CCCN1CC(C)=C(NCC)C2=C1N1CN(OC)C=C1C=N2` [Example 17, 4-(N-ethyl-amino)-8-methoxy-3-methyl-1-propyl-imidazo[1,5-a]pyrido[3,2-e]pyrazine] registered a melting point of 140 to 142 °C.

`CCCN1CC(C)=C(N(C)C)C2=C1N1CN(OC)C=C1C=N2` [Example 19, 4-(N,N-dimethyl-amino)-8-methoxy-3-methyl-1-propyl-imidazo[1,5-a]pyrido[3,2-e]pyrazine] displayed a melting point of 93 to 95 °C.

`CCCCNC1=C(C)CN(CC)C2=C1N=CC1=CN(OC)CN12` [Example 20, 4-(N-butyl-amino)-1-ethyl-8-methoxy-3-methyl-imidazo[1,5-a]pyrido[3,2-e]pyrazine] showed a melting point of 62 to 65 °C.

Turning to `CCN1CC(C)=C(NCc2ccccc2)C2=C1N1CN(OC)C=C1C=N2` [Example 21, 4-(N-benzyl-amino)-1-ethyl-8-methoxy-3-methyl-imidazo[1,5-a]pyrido[3,2-e]pyrazine], the melting point lay in the range of 127 to 128 °C.

Regarding `CCN1CC(C)=C(NC2CCCC2)C2=C1N1CN(OC)C=C1C=N2` [Example 22, 4-(N-cyclopentyl-amino)-1-ethyl-8-methoxy-3-methyl-imidazo[1,5-a]pyrido[3,2-e]pyrazine], the melting point was 93 to 95 °C.

In turn, `CCCN1CC(C)=C(NC2CCCC2)C2=C1N1CN(OC)C=C1C=N2` [Example 23, 4-(N-cyclopentyl-amino)-8-methoxy-3-methyl-1-propyl-imidazo[1,5-a]pyrido[3,2-e]pyrazine] returned a melting point of 77 to 80 °C.

In the case of `CCN1CC(C)=C(N2CCOCC2)C2=C1N1CN(OC)C=C1C=N2` [Example 24, 1-ethyl-8-methoxy-3-methyl-4-morpholino-imidazo[1,5-a]pyrido[3,2-e]pyrazine], the melting point was in the range of 132 to 133 °C.

Compound `CCCN1CC(C)=C(n2ccnn2)C2=C1N1CN(OC)C=C1C=N2` [Example 32, 8-methoxy-3-methyl-1-propyl-4-(1,2,3-triazol-1-yl)-imidazo[1,5-a]pyrido[3,2-e]pyrazine] yielded a melting point of 218 to 220 °C.

For `CCCN1CC(C)=C(NC(C)=O)C2=C1N1CN(OC)C=C1C=N2` [Example 38, 4-(N-acetyl-amino)-8-methoxy-3-methyl-1-propyl-imidazo[1,5-a]pyrido[3,2-e]pyrazine], the melting point fell in the range of 210 to 213 °C.

`CCCN1CC(C)=C(N(C(C)=O)C(C)=O)C2=C1N1CN(OC)C=C1C=N2` [Example 39, 4-(N,N-diacetyl-amino)-8-methoxy-3-methyl-1-propyl-imidazo[1,5-a]pyrido[3,2-e]pyrazine]: the melting point fell in the range of 135 to 138 °C.

`CCN1CC(C)=C(N(C(C)=O)C(C)=O)C2=C1N1CN(OC)C=C1C=N2` [Example 41, 4-(N,N-diacetyl-amino)-1-ethyl-8-methoxy-3-methyl-imidazo[1,5-a]pyrido[3,2-e]pyrazine]: the melting point was in the range of 135 to 136 °C.

For the compound `COc1ccc2nc(Cl)c3cnc(C(C)C)n3c2n1` [Intermediate A14], on PDE10 from rat striatum (rat striatum preparation, 0.1 μM [3H]-cAMP, 37° C., 30 minutes, read-out: Inhibition of PDE10 from rat IC50), the IC50 worked out at 237 nM.

`COc1ccc(Cc2nccc3cc(OC)c(OC)cc23)cc1OC` [Papaverine, reference compound] displayed an IC50 at PDE10 from rat striatum of 142 nM.

With `Nc1nc2c(ncn2[C@@H]2O[C@@H]3COP(=O)(O)O[C@H]3[C@H]2O)c(=O)[nH]1` [cGMP], the Km at PDE10 from pig striatum [3] was 2.2 µM; on PDE10 from rat striatum (substrate Km, rat striatum) it was 1.8 µM.
